# Source: paper PMC4014984, “The tetrapeptide core of the carrier peptide Xentry is cell-penetrating: novel activatable forms of Xentry” (Scientific Reports, 2014)
# Square brackets hold non-standard residues; d marks the D form. Peptide text beside a SMILES is read from it. * marks the point of attachment. FITC = O=C1OC2(c3ccc(O)cc3Oc3cc(O)ccc32)c2ccc(NC(=S)*)cc21
# Assays:
# [1] = system: HepG2 cells; experiment: Quantification of peptide uptake by overall cell fluorescence in wells (plate reader); settings: HepG2, 10 μM, 3 h, media without FCS, plate reader ex 485 nm / em 520 nm, mean ± SD n = 4, Student's t-test
# Protocol: HepG2 cells seeded into 96-well plates were incubated with L-isomeric (a), and D-isomeric (b) peptides at a final concentration of 10 μM in quadruplicate wells. The cells were incubated for 3 h, fixed with 4% formaldehyde, and fluorescence measured using a fluorescent plate reader at an excitation wavelength of 485 nm and emission wavelength of 520 nm. The fluorescence of cells was plotted as the mean ± SD (n = 4).
# The cells were washed thrice with media without FCS, and peptides diluted in 100 μl of MEM media without FCS were added to the cells at a final concentration of 10 μM in quadruplicate wells. […] The fluorescence of cells was plotted as the mean ± SD (n = 4).
# [2] = system: WM-266-4 cells; experiment: Cell-penetrating ability of Xentry peptides, fluorescence microscopy; settings: for Uptake by WM-266-4 cells (in words): FITC-labelled L-isomeric peptides, 10 μM, 3 h, fixed cells; for Uptake by WM-266-4 cells: scored visually, labelled peptides incubated 3 h at 37°C, L-isomers in media without FCS, D-isomers with FCS
# [3] = system: HepG2 cells; experiment: Cell-penetrating ability of Xentry peptides, fluorescence/confocal microscopy; settings: for Uptake by HepG2 cells (in words): FITC-labelled L-isomeric peptides, 10 μM, 3 h, fixed cells, fluorescence or confocal microscopy; for Uptake by HepG2 cells: scored visually, fluorescence microscopy, labelled peptides incubated 3 h at 37°C, L-isomers in media without FCS, D-isomers with FCS
# [4] = system: BT549 cells; experiment: Cell-penetrating ability of Xentry peptides, fluorescence microscopy; settings: for Uptake by BT549 cells (in words): FITC-labelled L-isomeric peptides, 10 μM, 3 h, fixed cells; for Uptake by BT-549cells: scored visually, labelled peptides incubated 3 h at 37°C, L-isomers in media without FCS
# [5] = system: HepG2 cells
# [6] = system: HepG2 cells; remark: listed apart in the source
# [7] = system: MCF-7 cells; experiment: Uptake of activatable Xentry peptides with or without MMP-9 pretreatment; settings: then 3 h with MCF-7 cells, fluorescence or confocal microscopy
Compound,Uptake by WM-266-4 cells (in words) [2],Uptake by WM-266-4 cells [2],Uptake by HepG2 cells (in words) [3],Uptake by HepG2 cells [3],Uptake by BT549 cells (in words) [4],Uptake by BT-549cells [4],further results
LCLE,readily taken up,+++,less well,++,readily taken up,+++,Cell-penetrating ability compared with LCLR (overall cell fluorescence in wells) [1]: not significantly different
LCLRPVGGGGGGGGGGGGGGGLCLRPVG,,,,,,,Uptake of linear multivalent forms of Xentry by HepG2 cells [5]: unable to penetrate
LCLRPVGGGRRRQQQQQQRRR,,,,,,,Effect on HepG2 viability relative to the other three CPPs [6]: least effect; Effect on viability of HepG2 cells [6]: no significant affect
IIIR,poorly cell-permeable,-,improved cell uptake,,poorly cell-permeable,,
LCLK,taken up well,+++,taken up well,,taken up well,,Cell-penetrating ability compared with LCLR (overall cell fluorescence in wells) [1]: reduced activity
VVVR,poorly cell-permeable,-,improved cell uptake,++,poorly cell-permeable,-,
LCLRPVG,,,,,,+++,
CC(C)C[C@@H](N)C(=O)N[C@H](CS)C(=O)N[C@H](CC(C)C)C(=O)N[C@H](CCCNC(=N)N)C(=O)N1CCC[C@@H]1C(=O)N[C@@H](C(=O)NCC(=O)NCC(=O)NCC(=O)NCC(=O)N1CCC[C@H]1C(=O)N[C@@H](CC(C)C)C(=O)NCC(=O)N[C@@H](CC(C)C)C(=O)N[C@@H](C)C(=O)NCC(=O)NCC(=O)N[C@H](CC(C)C)C(=O)N[C@H](CS)C(=O)N[C@H](CC(C)C)C(=O)N[C@H](CCCNC(=N)N)C(=O)N1CCC[C@@H]1C(=O)N[C@@H](C(=O)NCC(=O)N[C@H](CCCCNC(=S)Nc1ccc2c(c1)C(=O)OC21c2ccc(O)cc2Oc2cc(O)ccc21)C(=O)O)C(C)C)C(C)C [lclrpvGGGGPLGLAGGlclrpvgk-FITC] (H-[dL][dC][dL][dR][dP][dV]GGGGPLGLAGG[dL][dC][dL][dR][dP][dV]G[dK](FITC)-OH),,,,,,,"Uptake by MCF-7 cells after pretreatment with MMP-9 ([7]; 10 μM peptide incubated 3 h at 37°C with activated MMP-9 (0.4 μg/ml)): led to uptake of the digested peptide; Uptake by MCF-7 cells, peptide not treated with MMP-9 ([7]; 10 μM peptide left untreated): not cell-permeable"
LLLLR,poorly cell-permeable,-,poorly penetrated,+,poorly cell-permeable,+,
GRKKRRQRRRPPQGGRRRQQQQQQRRR [penetratin],,,,,,,Effect on viability of HepG2 cells [6]: no significant affect
LCLN,,+,,+,,+++,Cell-penetrating ability compared with LCLR (overall cell fluorescence in wells) [1]: reduced activity
LCLQ,,+,did not improve uptake,++,maintained cell-permeability,+++,Cell-penetrating ability compared with LCLR (overall cell fluorescence in wells) [1]: not significantly different
LLLRR,poorly cell-permeable,-,failed to improve cell-penetrating ability,-,poorly cell-permeable,-,
LLLR,poorly cell-permeable,-,poorly penetrated,-,poorly cell-permeable,-,
